# Laboratory results taken from ChEMBL document CHEMBL1201862, “PubChem BioAssay data set” (2004).
# The source made the active and inactive calls.
# Tests used:
# [1] = biological target: DNA dC->dU-editing enzyme APOBEC-3A (Homo sapiens, UniProt P31941); experiment: Dose Response confirmation of small molecule APOBEC3A DNA Deaminase Inhibitors via a fluorescence-based single-stranded DNA deaminase assay. [Related pubchem assays (depositor defined):AID493011, AID493024]; type: functional
# [2] = biological target: DNA dC->dU-editing enzyme APOBEC-3G (Homo sapiens, UniProt Q9HC16); type: functional;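 also: Dose-response counterscreen measuring inhibition of APOBEC3G DNA deaminase activity, run while confirming APOBEC3A inhibitors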
# Sequence of DNA dC->dU-editing enzyme APOBEC-3G (Q9HC16 whole entry): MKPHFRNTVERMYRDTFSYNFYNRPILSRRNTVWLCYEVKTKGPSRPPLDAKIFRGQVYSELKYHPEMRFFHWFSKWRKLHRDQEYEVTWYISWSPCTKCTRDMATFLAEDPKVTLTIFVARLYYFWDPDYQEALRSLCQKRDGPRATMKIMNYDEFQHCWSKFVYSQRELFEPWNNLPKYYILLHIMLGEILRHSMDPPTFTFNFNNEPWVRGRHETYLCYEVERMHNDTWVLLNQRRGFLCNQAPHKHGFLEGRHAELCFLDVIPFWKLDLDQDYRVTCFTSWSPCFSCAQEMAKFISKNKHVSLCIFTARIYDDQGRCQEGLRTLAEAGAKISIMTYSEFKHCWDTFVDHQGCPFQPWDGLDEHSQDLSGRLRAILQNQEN
# Hexokinase = Hexokinase (Trypanosoma brucei, UniProt Q38C41); experiment: Confirmation assay for inhibitors of Trypanosoma brucei hexokinase 1-Analogue-first series. [Related pubchem assays (depositor defined):AID1430, AID1632, AID2516, AID2560, AID2579, AID2600, AID449725, AID492951]; type: functional
# Sequence of Hexokinase (Q38C41 whole entry): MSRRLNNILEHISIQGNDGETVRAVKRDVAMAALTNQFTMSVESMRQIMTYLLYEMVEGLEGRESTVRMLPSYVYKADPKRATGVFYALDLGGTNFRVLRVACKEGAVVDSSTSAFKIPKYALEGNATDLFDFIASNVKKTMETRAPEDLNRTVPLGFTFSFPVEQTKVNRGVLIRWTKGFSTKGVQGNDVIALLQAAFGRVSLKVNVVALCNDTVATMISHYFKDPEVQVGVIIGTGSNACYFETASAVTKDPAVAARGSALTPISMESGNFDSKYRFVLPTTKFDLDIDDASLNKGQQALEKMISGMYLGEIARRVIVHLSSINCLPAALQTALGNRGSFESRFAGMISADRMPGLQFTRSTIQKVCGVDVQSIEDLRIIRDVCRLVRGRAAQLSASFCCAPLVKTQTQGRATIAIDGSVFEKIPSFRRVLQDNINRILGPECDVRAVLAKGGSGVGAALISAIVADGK
# [3] = tested on: Streptococcus sp. 'group A'; experiment: Streptococcus pyogenes SK(-)GAS viability under kanamycin – luminescence, BacTiterGlo, confirmation, counter-screen for streptokinase expression inhibitor project, dose response (AID 1900); type: functional, organism-based
# [4] = Luminescence Cell-Based Dose Retest to Confirm Inhibitors of Cancer Stem Cells. [Related pubchem assays (depositor defined):AID2717, AID2721]; type: functional; details: Homo sapiens
# Streptococcus = experiment: GAS UMAA2166 growth inhibition – luminescence, BacTiterGlo, counter-screen for streptokinase expression inhibitor project, dose response (AID 1915); type: functional, organism-based;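 also: potency for reduction of bacterial viability or growth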
# [5] = biological target: Neurotensin receptor type 1 (Homo sapiens, UniProt P30989); type: functional;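 also: Image-based confirmatory dose-response assay measuring agonist activity at NTR1; NTR1-expressing U2OS osteosarcoma cells imaged for beta-arrestin GFP spot formation; agonist potency where compounds increase beta-arrestin recruitment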
# Sequence of Neurotensin receptor type 1 (P30989 whole entry): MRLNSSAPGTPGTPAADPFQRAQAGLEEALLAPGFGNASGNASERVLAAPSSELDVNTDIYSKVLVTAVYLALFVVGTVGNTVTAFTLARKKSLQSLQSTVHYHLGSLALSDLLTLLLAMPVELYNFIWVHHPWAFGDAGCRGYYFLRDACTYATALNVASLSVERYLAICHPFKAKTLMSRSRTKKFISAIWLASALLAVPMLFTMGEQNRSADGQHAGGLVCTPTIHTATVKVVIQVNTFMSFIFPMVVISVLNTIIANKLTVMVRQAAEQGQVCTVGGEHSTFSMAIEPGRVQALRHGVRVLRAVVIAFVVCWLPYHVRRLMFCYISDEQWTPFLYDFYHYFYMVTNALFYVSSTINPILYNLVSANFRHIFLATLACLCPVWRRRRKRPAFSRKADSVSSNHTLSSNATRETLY
# Streptokinase A = biological target: T1, Streptokinase A (Streptococcus pyogenes serotype M1, UniProt P10520); experiment: viability-normalized secreted streptokinase activity reduction – plasminogen activation absorbance, OD405, dose response (AID 1914); type: functional, Streptococcus pyogenes M1 GAS;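 also: secreted streptokinase activity via plasminogen activation per viability signal from cell pellet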
# T1 sequence (P10520 whole entry): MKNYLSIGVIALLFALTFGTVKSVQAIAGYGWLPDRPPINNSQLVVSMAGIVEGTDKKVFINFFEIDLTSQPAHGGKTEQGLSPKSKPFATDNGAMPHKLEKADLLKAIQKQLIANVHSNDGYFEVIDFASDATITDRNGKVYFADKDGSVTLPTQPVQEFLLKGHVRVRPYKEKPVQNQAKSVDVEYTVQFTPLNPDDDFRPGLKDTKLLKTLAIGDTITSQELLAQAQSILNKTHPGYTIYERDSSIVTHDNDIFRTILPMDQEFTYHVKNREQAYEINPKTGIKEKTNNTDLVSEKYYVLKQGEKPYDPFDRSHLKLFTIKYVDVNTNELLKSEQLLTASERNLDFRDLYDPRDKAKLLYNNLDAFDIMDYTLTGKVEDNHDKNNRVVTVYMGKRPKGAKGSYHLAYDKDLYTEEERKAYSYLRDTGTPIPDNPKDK
# [6] = HPDE-C7 pancreatic duct cell viability loss – fluorescence, HTS (AID 430); type: functional, cell-based; details: Homo sapiens
# [7] = viability loss of HPDE-C7K cells – cell-based, fluorescence, HTS, primary screen (AID 431); type: functional; details: Homo sapiens
# [8] = viability loss in CEM21 cells – cell-based, CellTiter-Glo luminescence, cherry-picked, cytotoxicity control for viral fusion inhibitor project, dose response (AID 652042); type: functional;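 also: potency for signal decrease meaning cytotoxicity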
# [9] = blockers of bursicon-stimulated LGR2 cAMP reporter – cell-based, HEK293, CRE-luciferase reporter, cherry pick, set 2, dose response (AID 743343); type: functional;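 also: transfected cells were stimulated with diluted bursicon conditioned medium after compound addition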
# [10] = toxicity toward HepG2 liver cells – cell-based, plate reader, cherry-pick, antagonist series, cytotoxicity control, dose response (AID 743416); type: functional
# [11] = off-target signal loss in HeLa-CEM21 co-culture – HeLa F-luc CTL cells, cherry-picked, counter-screen for HIV-1 Env fusion inhibitor project, dose response (AID 652040); type: functional, cell-based;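 also: potency for signal decrease marking cytotoxic or nonspecific inhibition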
# [12] = blockade of melanocortin 4 receptor signaling – cell-based, plate reader, cherry pick, counter-screen for LGR2 antagonist project, dose response (AID 743444); type: functional;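 also: transfected HEK 293 cells stimulated with alpha-MSH peptide; potency of inhibitors of the alpha-MSH evoked signal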
# [13] = viability loss in HEK293 cells – cell-based, plate reader, cherry-picked samples, cytotoxicity control, dose response (AID 743446); type: functional
# [14] = HEK-293T viability loss after treatment – luminescence, T-cell screen hits, cytotoxicity control for TCR NF-kB inhibitor project, dose response (AID 489026); type: functional, cell-based;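 also: cells exposed to compound about 14 hours before the viability readout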
# HeLa = experiment: viability loss in HeLa cells – cell-based, 24 h, cherry-picked samples, cytotoxicity control, dose response (AID 504726); type: functional; details: Homo sapiens;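 also: potency for cytotoxicity as loss of luminescence signal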
# [15] = biological target: T2, Eukaryotic translation initiation factor 2-alpha kinase 3 (Homo sapiens, UniProt Q9NZJ5); experiment: Counterscreen assay for PERK inhibitors: Dose response cell-based high throughput screening assay to measure inhibition of PERK at 6 hours. [Related pubchem assays: 1522, 1416 ]; type: functional
# T2 sequence (Q9NZJ5 whole entry): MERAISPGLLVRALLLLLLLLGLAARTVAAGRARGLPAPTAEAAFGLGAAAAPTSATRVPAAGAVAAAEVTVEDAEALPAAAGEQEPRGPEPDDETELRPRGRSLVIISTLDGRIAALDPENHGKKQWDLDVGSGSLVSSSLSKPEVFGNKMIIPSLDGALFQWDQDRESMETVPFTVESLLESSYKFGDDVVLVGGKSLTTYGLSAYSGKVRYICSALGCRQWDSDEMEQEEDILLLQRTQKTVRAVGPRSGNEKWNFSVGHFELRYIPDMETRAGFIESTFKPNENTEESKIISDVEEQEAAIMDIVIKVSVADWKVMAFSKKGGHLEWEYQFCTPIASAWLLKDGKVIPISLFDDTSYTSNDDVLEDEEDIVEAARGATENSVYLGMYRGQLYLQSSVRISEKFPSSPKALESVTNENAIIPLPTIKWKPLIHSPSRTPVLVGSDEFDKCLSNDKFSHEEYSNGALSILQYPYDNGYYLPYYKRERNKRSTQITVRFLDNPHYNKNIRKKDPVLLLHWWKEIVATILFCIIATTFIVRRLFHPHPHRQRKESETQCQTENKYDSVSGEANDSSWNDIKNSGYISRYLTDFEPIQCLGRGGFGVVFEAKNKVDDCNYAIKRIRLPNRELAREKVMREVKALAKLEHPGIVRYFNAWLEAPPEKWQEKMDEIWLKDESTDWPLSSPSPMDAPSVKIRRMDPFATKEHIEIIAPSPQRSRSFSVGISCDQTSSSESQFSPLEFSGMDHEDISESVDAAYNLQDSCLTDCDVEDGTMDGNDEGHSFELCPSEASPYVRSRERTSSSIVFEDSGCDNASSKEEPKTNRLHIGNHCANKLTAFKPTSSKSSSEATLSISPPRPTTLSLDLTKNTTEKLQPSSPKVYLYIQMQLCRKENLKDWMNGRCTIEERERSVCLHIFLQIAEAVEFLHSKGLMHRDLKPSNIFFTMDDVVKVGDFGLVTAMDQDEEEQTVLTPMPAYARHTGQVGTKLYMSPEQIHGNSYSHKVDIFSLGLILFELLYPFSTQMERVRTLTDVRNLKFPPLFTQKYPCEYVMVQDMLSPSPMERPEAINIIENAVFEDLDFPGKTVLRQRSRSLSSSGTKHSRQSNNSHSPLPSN
# [16] = biological target: T2, Eukaryotic translation initiation factor 2-alpha kinase 3; experiment: Dose response cell-based high-throughput screening assay to measure PERK inhibition. [Related pubchem assays: 1416 ]; type: functional
# Sequence of DNA dC->dU-editing enzyme APOBEC-3A (P31941 whole entry): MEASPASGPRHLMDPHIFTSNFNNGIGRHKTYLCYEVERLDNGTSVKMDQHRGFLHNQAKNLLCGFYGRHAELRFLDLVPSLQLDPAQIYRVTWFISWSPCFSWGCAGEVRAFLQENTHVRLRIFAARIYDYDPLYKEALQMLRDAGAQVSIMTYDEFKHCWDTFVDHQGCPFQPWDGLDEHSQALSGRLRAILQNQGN
compound,measurement,setting,value
Cn1c(CNC(=O)c2ccco2)nnc1SCC(=O)N1c2ccccc2Sc2ccccc21,IC50,[1],4 µM (active)
same,IC50,[2],5.8 µM (active)
CC(=O)Nc1cc(Cl)ccc1C(=O)O,IC50,Hexokinase,> 25 µM (inactive)
O=c1/c(=C\c2cccc(O)c2)sc2nc(-c3ccccc3)c(-c3ccccc3)n12,EC50,[3],3.01 µM (active)
same,AC50,[4],2.59 µM (active)
same,EC50,Streptococcus,51.1 µM (active)
same,EC50,[5],27.2 µM (inactive)
same,EC50,Streptokinase A,4.22 µM (active)
Cc1ccc(-n2ncc3c(N4CCN(c5ccccc5)CC4)ncnc32)c(C)c1,EC50,[6],13.8 µM (active)
same,EC50,[7],8.48 µM (active)
same,EC50,[5],9.82 µM (active)
same,AC50,[8],17.7 µM (active)
same,AC50,[9],13.8 µM (active)
same,AC50,[10],34.7 µM (active)
same,AC50,[11],32.4 µM (active)
same,AC50,[12],16.5 µM (active)
same,AC50,[13],14.4 µM (active)
same,IC50,[14],29.6 µM (inactive)
CSc1ncccc1C(=O)OCCCC(=O)c1ccc(F)cc1,AC50,HeLa,91.9 µM (active)
CCc1ccc(-n2c(SCC(=O)N3Cc4ccccc4CC3C(=O)O)nnc2-c2ccncc2)cc1 (stereo unspecified),EC50,[15],> 55.7 µM (not active)
same,EC50,[16],> 55.7 µM (not active)
